These results are taken from ChEMBL document CHEMBL1201862, “PubChem BioAssay data set” (2004).

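Five concentrations, 48 hours, 96-well plates. Here, GI50 denotes the concentration required for 50% inhibition of growth.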 Activity calls are given as the source filed them. Cut-off read from the data, not from the text of the source: active = GI50 up to about 1.1 µM and inactive = higher. A value given as a limit tells only on which side of the number the result lay.

Holding throughout (assay): NCI anticancer screen, dose series, 48 h
The test system of experiment [1] is A498.
In experiment [2] the test system is ACHN.
Experiment [3] concerns DU-145.
Experiment [4] relates to HCT-15.
Experiment [5] deals with HL-60.
Experiment [6] deals with HT-29.
Experiment [7] concerns IGROV-1.
Experiment [8] deals with K562.
Experiment [9] relates to KM12.
In experiment [10] the test system is NCI-H23.
The test system of experiment [11] is OVCAR-3.
Experiment [12] has as its system OVCAR-4.
For experiment [13], the system named is OVCAR-8.
Experiment [14] relates to SF-268.
For experiment [15], the system named is SK-OV-3.
Experiment [16] deals with Hs-578T.
Experiment [17] deals with MCF7.
Experiment [18] concerns MDA-MB-435.
Experiment [19] has as its system MDA-MB-231.

As for `C=C(C[N+](C)(C)C)N/N=C/c1oc(-c2ccc(OC)c(OC)c2)c(-c2ccc(OC)c(OC)c2)c1[N+](=O)[O-]`, the GI50 in experiment [1] was 28.6 µM (inactive); in experiment [2] it was 15.4 µM (inactive); in experiment [3] it was 34.1 µM (inactive); in [4], 17.9 µM; in [5], 8.63 µM (inactive); in experiment [6] it was 16.9 µM (inactive). The GI50 was 18.1 µM (inactive) in experiment [7]; 19.1 µM (inactive) in experiment [8]; 17.1 µM (inactive) in [9]; 21 µM (inactive) in experiment [10]; 24.8 µM (inactive) in experiment [11]; 18.5 µM (inactive) in experiment [12]. Moreover, the GI50 is 15.8 µM (inactive) in experiment [13], 17.9 µM (inactive) in experiment [14] and 30.3 µM (inactive) in experiment [15].

For the compound `O=S1(=O)OCCOS(=O)(=O)C1(F)Br`, the GI50 in [2] was > 100 µM (inactive); in [3] it was > 100 µM (inactive); in [4], above 100 µM; in experiment [5], > 100 µM (inactive); in experiment [6], > 100 µM (inactive); in experiment [16], > 100 µM (inactive). The GI50 in experiment [8], in experiment [9], in experiment [17], in [18], in experiment [10] and in experiment [11] was > 100 µM (inactive) throughout. The GI50 in experiment [12], in experiment [13], in experiment [14] and in [15] was > 100 µM (inactive) each time.

With `COc1ccc2nc(/C(N)=C\C#N)ccc2c1`, the GI50 in experiment [2] was 75.2 µM (inactive); in experiment [3] it was 92.5 µM (inactive); in [4], above 100 µM; in [5], 18 µM (inactive); in [6], 47.6 µM (inactive); in experiment [16], 1.01 µM (active). Besides, the GI50 in experiment [7] was 29.9 µM (inactive); in experiment [8], 31.6 µM (inactive); in experiment [9] it was 52.1 µM (inactive); in experiment [17], > 100 µM (inactive); in [19], > 100 µM (inactive); in experiment [18] it was 32.6 µM (inactive). Also, the GI50 was 90.2 µM (inactive) in [10]; 31.6 µM (inactive) in experiment [11]; 86.7 µM (inactive) in [12]; 36.8 µM (inactive) in [13]; 33.7 µM (inactive) in [14].

Turning to `O=C1c2c(ccc3c2CCC3)CC12Cc1cc3c(cc1C2)CCC3`, the GI50 in experiment [1] is > 100 µM (inactive); in experiment [2] it was > 100 µM (inactive); in [3], > 100 µM (inactive); in experiment [4], above 100 µM; in [5], > 100 µM (inactive); in experiment [6] it was > 100 µM (inactive). The GI50 in experiment [16], in experiment [7], in experiment [8], in experiment [9], in experiment [17] and in [19] was > 100 µM (inactive) each time. Besides, the GI50 in [18], in experiment [10], in experiment [11], in experiment [12], in experiment [13] and in [14] was > 100 µM (inactive) in each case. Besides, in experiment [15], the GI50 is > 100 µM (inactive).

Consider `COc1ccc(OC)c(C2CCCc3c2cnc2nc(N)nc(N)c32)c1` (stereo not drawn), for which the GI50 is < 0.01 µM (active) in experiment [2]; 0.0132 µM (active) in experiment [3]; below 0.01 µM in experiment [4]; < 0.01 µM (active) in [5]; < 0.01 µM (active) in [6]; > 57.3 µM (inactive) in [16]. The GI50 in experiment [7] is < 0.01 µM (active); in [8], < 0.01 µM (active); in experiment [9], 0.0716 µM (active); in experiment [17] it was < 0.01 µM (active); in experiment [19] it was > 100 µM (inactive); in experiment [18], < 0.01 µM (active). Further, the figures for the GI50 in experiment [10], in [12] and in [13] were < 0.01 µM (active), > 100 µM (inactive) and < 0.01 µM (active), respectively.

Consider `N#Cc1nc(-c2ccccc2C(=O)O)oc1N`, for which the GI50 in [1] was > 100 µM (inactive); in [2], > 100 µM (inactive); in experiment [3], > 100 µM (inactive); in experiment [4], above 100 µM; in experiment [5] it was > 100 µM (inactive); in [6], > 100 µM (inactive). Moreover, the GI50 in [16], in [7], in experiment [8], in experiment [9], in experiment [17] and in experiment [19] was > 100 µM (inactive) each time. Further, the GI50 in [18], in [10], in [11], in experiment [12], in [13] and in [14] was > 100 µM (inactive) in each case. For the same compound, the GI50 in experiment [15] is > 100 µM (inactive).

Turning to `Cc1cc(=O)oc2c(CNC(C)C(=O)O)c(O)ccc12` (stereo not drawn), the GI50 in experiment [2] was > 100 µM (inactive); in [3], > 100 µM (inactive); in experiment [4] it was above 100 µM; in experiment [5] it was > 100 µM (inactive); in experiment [6], > 100 µM (inactive); in [16], > 100 µM (inactive). For the same compound, the GI50 in experiment [7], in experiment [8], in experiment [9], in experiment [17], in [19] and in [18] was > 100 µM (inactive) each time. Besides, the GI50 in experiment [10], in experiment [11], in [12], in [13], in experiment [14] and in [15] was > 100 µM (inactive) throughout.

For the compound `CCCC(=O)OC1=C(c2ccccc2)Sc2ccccc2-n2cccc21`, the GI50 in [3] is > 10 µM (inactive); in experiment [4], above 10 µM; in experiment [5], > 10 µM (inactive); in experiment [6], > 10 µM (inactive); in [7], > 10 µM (inactive); in [8], > 10 µM (inactive). For the same compound, the GI50 in experiment [9] is > 10 µM (inactive); in experiment [17], > 10 µM (inactive); in experiment [19] it was > 10 µM (inactive); in [18] it was 8.57 µM (inactive); in [10], > 10 µM (inactive); in experiment [12], > 10 µM (inactive). The GI50 in experiment [13], in [14] and in experiment [15] was > 10 µM (inactive) each time.

For `CC(NC(=O)c1ccc(NP(=O)(OCc2ccc([N+](=O)[O-])o2)N(C)CCCCCl)cc1)c1ccc(OCC2CCCCC2)c(C(N)=O)c1` (stereo not drawn), the GI50 in experiment [1] was 16.7 µM (inactive); in experiment [2], 29 µM (inactive); in experiment [3] it was 29.3 µM (inactive); in [4] it was 46 µM; in [5], 16 µM (inactive); in [6] it was 18.3 µM (inactive). The GI50 in [16] is 16.3 µM (inactive); in [7] it was 15.9 µM (inactive); in experiment [8], 17.3 µM (inactive); in experiment [9] it was 13.8 µM (inactive); in experiment [17] it was 3.15 µM (inactive); in [19] it was 14.9 µM (inactive). The GI50 in experiment [18] was 12 µM (inactive); in experiment [10] it was 16.9 µM (inactive); in experiment [11] it was 11.6 µM (inactive); in experiment [12], 12.2 µM (inactive); in experiment [13], 31.6 µM (inactive); in experiment [14], 13.3 µM (inactive). The GI50 in [15] was 21.6 µM (inactive).
